A word on the EC50: it is the concentration needed to bring the measured effect to its halfway point.

The subject of experiment [1] is HCV genotype 1a (H77 strain) replicon in HUH-7 cells. Briefly: HCV replicon luciferase reporter assay, genotype 1a. Type of experiment: cell-based. As to conditions: Hepatitis C virus, Huh-7, 72 h, HCV genotype 1a replicon luciferase, 3 days incubation, read-out: LE_1a (EC50, range). Summed up: (§1)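 Replicon inhibition for both genotypes was measured as Renilla luciferase signal (EnduRen, 7.5 μM final, 2 h) after 3-day, 37° C exposure of replicon-bearing HUH-7 cells in 4% FCS DMEM, 0.5% DMSO. The 1b construct carries S1179I; the 1a H77 construct carries P1496L and S2204I. Twenty-point, 3-fold dilutions were fitted four-parametrically for EC50, and CC50 was taken from multiplexed Cell Titer-Blue.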

Experiment [2] concerns HCV genotype 1b (Con1) replicon in HUH-7 cells. Description: HCV replicon luciferase reporter assay, genotype 1b. In kind it is cell-based. As to conditions: Hepatitis C virus, Huh-7, 72 h, HCV genotype 1b replicon luciferase, 3 days incubation, read-out: LE_1b (EC50, range). Summed up: as §1
For orientation: Replicon systems follow genome replication, usually without infectious particles.

Like-named read-outs stand apart in the source and are kept apart here.

Turning to `COc1cc2ccnc(O[C@@H]3C[C@H]4C(=O)N[C@]5(C(=O)NS(=O)(=O)C6(F)CC6)C[C@H]5/C=C\CC[C@@H](C)C[C@@H](C)[C@H](NC(=O)OC(C)(C)C(F)(F)F)C(=O)N4C3)c2cc1F` [Compound 4069], the EC50 in experiment [1] (GETYPE1A) and in experiment [2] (GETYPE1B) was less than 5.46 nM each time.
As to `COc1cc2c(OC)cnc(O[C@@H]3C[C@H]4C(=O)N[C@]5(C(=O)NS(=O)(=O)C6(C)CC6)C[C@H]5/C=C\CC[C@@H](C)C[C@@H](C)[C@H](NC(=O)OC(C)(C)C)C(=O)N4C3)c2cc1F` [Compound 4070, tert-butyl (2R,6S,7R,9R,13aS,14aR,16aS,Z)-2-(7-fluoro-4,6-dimethoxyisoquinolin-1-yloxy)-7,9-dimethyl-14a-(1-methylcyclopropylsulfonylcarbamoyl)-5,16-dioxo-1,2,3,5,6,7,8,9,10,11,13a,14,14a,15,16,16a-hexadecahydrocyclopropa[e]pyrrolo[1,2-a][1,4]diazacyclopentadecin-6-ylcarbamate], the 50% effective concentration (EC50) in experiment [1] and in experiment [2] was less than 5.46 nM in each case.
For the compound `C[C@@H]1CC/C=C\[C@@H]2C[C@@]2(C(=O)NS(=O)(=O)C2CC2)NC(=O)[C@@H]2C[C@@H](Oc3nccc4ccc(F)cc34)CN2C(=O)[C@@H](NC(=O)OC(C)(C)C)[C@H](C)C1` [Compound 4071, tert-butyl (2R,6S,7R,9R,13aS,14aR,16aS,Z)-14a-(cyclopropylsulfonylcarbamoyl)-2-(7-fluoroisoquinolin-1-yloxy)-7,9-dimethyl-5,16-dioxo-1,2,3,5,6,7,8,9,10,11,13a,14,14a,15,16,16a-hexadecahydrocyclopropa[e]pyrrolo[1,2-a][1,4]diazacyclopentadecin-6-ylcarbamate], the EC50 in experiment [1] and in experiment [2] was less than 5.46 nM in each case.
With `C[C@@H]1CC/C=C\[C@@H]2C[C@@]2(C(=O)NS(=O)(=O)C2CC2)NC(=O)[C@@H]2C[C@@H](Oc3nccc4ccc(F)cc34)CN2C(=O)[C@@H](NC(=O)OC2(C)CC2)[C@H](C)C1` [Compound 4073, 1-methylcyclopropyl (2R,6S,7R,9R,13aS,14aR,16aS,Z)-14a-(cyclopropylsulfonylcarbamoyl)-2-(7-fluoroisoquinolin-1-yloxy)-7,9-dimethyl-5,16-dioxo-1,2,3,5,6,7,8,9,10,11,13a,14,14a,15,16,16a-hexadecahydrocyclopropa[e]pyrrolo[1,2-a][1,4]diazacyclopentadecin-6-ylcarbamate], the EC50 in experiment [1] and in experiment [2] was less than 5.46 nM each time.
For the compound `COc1cc2c(OC)cnc(O[C@@H]3C[C@H]4C(=O)N[C@]5(C(=O)NS(=O)(=O)C6CC6)C[C@H]5/C=C\CC[C@@H](C)C[C@@H](C)[C@H](NC(=O)OC(C)(C)C)C(=O)N4C3)c2cc1F` [Compound 4074, tert-butyl (2R,6S,7R,9R,13aS,14aR,16aS,Z)-14a-(cyclopropylsulfonylcarbamoyl)-2-(7-fluoro-4,6-dimethoxyisoquinolin-1-yloxy)-7,9-dimethyl-5,16-dioxo-1,2,3,5,6,7,8,9,10,11,13a,14,14a,15,16,16a-hexadecahydrocyclopropa[e]pyrrolo[1,2-a][1,4]diazacyclopentadecin-6-ylcarbamate], the concentration giving a half-maximal response (EC50) in experiment [1] and in experiment [2] was less than 5.46 nM each time.
With `CCOc1cnc(O[C@@H]2C[C@H]3C(=O)N[C@]4(C(=O)NS(=O)(=O)C5(C)CC5)C[C@H]4/C=C\CC[C@@H](C)C[C@@H](C)[C@H](NC(=O)OC(C)(C)C)C(=O)N3C2)c2cc(Cl)ccc12` [Compound 4075, tert-butyl (2R,6S,7R,9R,13aS,14aR,16aS,Z)-2-(7-chloro-4-ethoxyisoquinolin-1-yloxy)-7,9-dimethyl-14a-(1-methylcyclopropylsulfonylcarbamoyl)-5,16-dioxo-1,2,3,5,6,7,8,9,10,11,13a,14,14a,15,16,16a-hexadecahydrocyclopropa[e]pyrrolo[1,2-a][1,4]diazacyclopentadecin-6-ylcarbamate], the EC50 in experiment [1] and in experiment [2] was less than 5.46 nM each time.
On to `CCOc1cnc(O[C@@H]2C[C@H]3C(=O)N[C@]4(C(=O)NS(=O)(=O)C5(C)CC5)C[C@H]4/C=C\CC[C@@H](C)C[C@@H](C)[C@H](NC(=O)OC(C)(C)C(F)(F)F)C(=O)N3C2)c2cc(Cl)ccc12` [Compound 4076], for which the EC50 in experiment [1] (GETYPE1A) and in experiment [2] (GETYPE1B) was less than 5.46 nM throughout.
As to `CCC1(S(=O)(=O)NC(=O)[C@@]23C[C@H]2/C=C\CC[C@@H](C)C[C@@H](C)[C@H](NC(=O)OC(C)(C)C(F)(F)F)C(=O)N2C[C@H](Oc4nccc5cc(OC)ccc45)C[C@H]2C(=O)N3)CC1` [Compound 4077], the EC50 in experiment [1] (GETYPE1A) and in experiment [2] (GETYPE1B) was less than 5.46 nM in each case.
For the compound `COc1ccc2c(O[C@@H]3C[C@H]4C(=O)N[C@]5(C(=O)NS(=O)(=O)C6(C)CC6)C[C@H]5/C=C\CC[C@@H](C)C[C@@H](C)[C@H](NC(=O)OC(C)(C)C)C(=O)N4C3)nc(-c3ccc(C(C)(C)C)cc3)cc2c1` [Compound 4078, tert-butyl (2R,6S,7R,9R,13aS,14aR,16aS,Z)-2-(3-(4-tert-butylphenyl)-6-methoxyisoquinolin-1-yloxy)-7,9-dimethyl-14a-(1-methylcyclopropylsulfonylcarbamoyl)-5,16-dioxo-1,2,3,5,6,7,8,9,10,11,13a,14,14a,15,16,16a-hexadecahydrocyclopropa[e]pyrrolo[1,2-a][1,4]diazacyclopentadecin-6-ylcarbamate], the 50% effective concentration (EC50) in experiment [1] and in experiment [2] was 4.82 to 103 nM in each case.
As to `COc1ccc2c(O[C@@H]3C[C@H]4C(=O)N[C@]5(C(=O)NS(=O)(=O)C6(C)CC6)C[C@H]5/C=C\CC[C@@H](C)C[C@@H](C)[C@H](NC(=O)OC(C)(C)C(F)(F)F)C(=O)N4C3)nc(-c3ccc(C(C)(C)C)cc3)cc2c1` [Compound 4079], the concentration for a half-maximal effect (EC50) in experiment [1] (GETYPE1A) and in experiment [2] (GETYPE1B) was 4.82 to 103 nM in each case.
Consider `COc1ccc2c(O[C@@H]3C[C@H]4C(=O)N[C@]5(C(=O)NS(=O)(=O)C6(C)CC6)C[C@H]5/C=C\CC[C@@H](C)C[C@@H](C)[C@H](NC(=O)OC(C)(C)C)C(=O)N4C3)ncc(OC)c2c1` [Compound 4080, tert-butyl (2R,6S,7R,9R,13aS,14aR,16aS,Z)-2-(4,6-dimethoxyisoquinolin-1-yloxy)-7,9-dimethyl-14a-(1-methylcyclopropylsulfonylcarbamoyl)-5,16-dioxo-1,2,3,5,6,7,8,9,10,11,13a,14,14a,15,16,16a-hexadecahydrocyclopropa[e]pyrrolo[1,2-a][1,4]diazacyclopentadecin-6-ylcarbamate], for which the EC50 in experiment [1] and in experiment [2] was less than 5.46 nM in each case.
Regarding `COc1ccc2c(O[C@@H]3C[C@H]4C(=O)N[C@]5(C(=O)NS(=O)(=O)C6(C)CC6)C[C@H]5/C=C\CC[C@@H](C)C[C@@H](C)[C@H](NC(=O)OC(C)(C)C(F)(F)F)C(=O)N4C3)ncc(OC)c2c1` [Compound 4081], the concentration giving a half-maximal response (EC50) in experiment [1] (GETYPE1A) and in experiment [2] (GETYPE1B) was less than 5.46 nM throughout.
Consider `COc1cnc(O[C@@H]2C[C@H]3C(=O)N[C@]4(C(=O)NS(=O)(=O)C5(CF)CC5)C[C@H]4/C=C\CC[C@@H](C)C[C@@H](C)[C@H](NC(=O)OC(C)(C)C)C(=O)N3C2)c2cc(F)ccc12` [Compound 4082, tert-butyl (2R,6S,7R,9R,13aS,14aR,16aS,Z)-2-(7-fluoro-4-methoxyisoquinolin-1-yloxy)-14a-(1-(fluoromethyl)cyclopropylsulfonylcarbamoyl)-7,9-dimethyl-5,16-dioxo-1,2,3,5,6,7,8,9,10,11,13a,14,14a,15,16,16a-hexadecahydrocyclopropa[e]pyrrolo[1,2-a][1,4]diazacyclopentadecin-6-ylcarbamate], for which the 50% effective concentration (EC50) in experiment [1] and in experiment [2] was less than 5.46 nM in each case.

Source of the values: patent US9499550B2 (BRISTOL-MYERS SQUIBB COMPANY, priority 2012, dated 2016).
